US8110570B2, “Modulators of acetyl-coenzyme A carboxylase and methods of use thereof” (Cropsolution, Inc., priority 2008, dated 2012)

How the values were obtained:
HepG2 cells = test: Fatty acid synthesis assay, 14C-acetate incorporation into phospholipids; assay type: cell-based; conditions: Homo sapiens, 24 h, read-out: inhibition of radiolabel incorporation into phospholipids
Text: (§1) The in vivo ACC inhibitory activity of compounds in this invention can be confirmed in cultured cells using standard procedures that are well known to those skilled in the art. For example, since ACC catalyzes the first committed step in fatty acid biosynthesis, the in vivo activity of compounds can be confirmed by measuring their ability to prevent the formation of radiolabeled fatty acids from radiolabeled acetate in cultured human hepatoma cells (HepG2). In addition, since the malonyl-CoA produced by ACC inhibits fatty acid oxidation, the in vivo ACC inhibitory activity of compounds can be further confirmed by measuring the stimulation of fatty acid oxidation in cultured mouse myoblast cells (C2C12).
Fatty acid synthesis assays are performed with slight modifications to published procedures (Beckers et al., Cancer Res, 2007, 67: 8180-8187; Wang, J Lipid Res., 2006, 47:2028-41). Briefly, HepG2 cells are grown in Dulbecco's modified eagles medium containing 10% fetal calf serum in 6-well culture plates. Cells are treated for 24 h with test compounds added as DMSO stock solutions to a final DMSO concentration of 0.5% (v/v). After test compound incubation, ^14C—[2]-acetate is added (3 μCi/6 well plate) and cells are further incubated for 4 hrs. Cells are then harvested in 40% methanol and assayed for total protein. Total lipids are extracted with chloroform:methanol (2:1) and ^14C-radioactivity is quantified in the aqueous and organic phases. Total lipids in the organic phase are separated by thin-layer chromatography (TLC, silica gel 60A) using hexane:ether:acetic acid (90:30:1) as the mobile phase. Radioactivity distribution of lipid classes on TLC plates is quantified by phosphorimaging (Molecular Dynamics Storm 820). Compound 6 inhibited radiolabel incorporation into phospholipids 32% and 14% at 10 μM and 1 μM, respectively, while Compound 2 inhibited radiolabel incorporation into phospholipids 93% and 42% at 10 μM and 1 μM, respectively.

C2C12 cells = test: Fatty acid oxidation assay, [1-14C]palmitate to CO2; assay type: cell-based, mouse; conditions: compared to untreated controls
Text: as §1
Fatty acid oxidation assays are performed essentially as described (Beckers et al., Cancer Res, 2007, 67: 8180-8187). Briefly, C2C12 cells are plated at 600,000 cells/T25 flask. The next day, media is changed and the DMSO with or without test compound is added to a final concentration of 0.5% (v/v). After 1 h at 37° C. in atmosphere of 5% CO2, freshly made 2 uCi of FA-free bovine serum albumin-[1-^14C] palmitate complex is added to each flask. The flasks are then sealed with a stopper and incubated 6 h at 37° C. after which evolved CO2 is liberated by injection of perchloric acid to final concentration of 5% and captured by incubating the flasks overnight in the presence of filter paper soaked with 5% KOH. The filters are then air-dried and incubated with scintillation cocktail overnight for equilibrium. Radioactivity is quantified by scintillation counting.

COc1cc(C(=O)N2CCC3(CC2)NC(=O)c2cc(Br)ccc2O3)nc2c(OC)cccc12 [Compound 2, 6-Bromo-1′-[(4,8-dimethoxyquinoline-2-yl)carbonyl]spiro[2H-1,3-benzoxazine-2,4′-piperidine]-4(3H)-one]
inhibition at 1 µM (HepG2 cells; HepG2, 1 μM): 42% | inhibition at 10 µM (HepG2 cells; HepG2, 10 μM): 93% | stimulation of fatty acid oxidation (C2C12 cells; C2C12, 0.1 μM): 170% | stimulation of fatty acid oxidation (C2C12 cells; C2C12, 1 μM): 320%
